Assay results as given in US6593335B1, “Potassium channel openers” (Abbott Laboratories, priority 1997, dated 2003).
“And” between values parts separate entries of the source, which are not always exact repeats. Identical values can stand only once.

Columns and labels:
potassium channels [1] = biological target: potassium channels (Cavia porcellus, UniProt A0A286XYR9); test: Membrane hyperpolarization (MHP) assay in primary cultured guinea-pig urinary bladder (GPB) cells, DiBAC(4)3 FLIPR; type: cell-based; details: for MHP in GPB Cells Maximal Response (% P1075): maximal steady-state hyperpolarization relative to reference P1075 (assigned as 100%); for EC50: concentration that elicits 50% of the maximal response for the test sample
Protocol: Determination of Potassium Channel Opening Activity Membrane Hyperpolarization Assays Compounds were evaluated for potassium channel opening activity using the rat thoracic aorta smooth muscle AI 0 cell line or primary cultured guinea-pig urinary bladder (GPB) cells. The AI0 cell line was purchased from the American Type Culture Collection (Rockville, MD; Cat # 30-2002). […] Louis, MO) and 0.2 mg/mL ronase (Calbiochem, La Jolla, CA) with continuous stirring in a cell incubator for 30 minutes. The mixture was then centrifuged at 1300 x g for 5 minutes, and the pellet resuspended in Dulbecco's PBS (GIBCO, Gaithersburg, MD) and recentrifuged to remove residual enzyme. […] Cells were confirmed to be of smooth muscle type by cytoskeletal staining using a monoclonal mouse anti human-a-smooth muscle actin (Biomeda, Foster City, CA). Functional activity at potassium channels was measured by evaluating changes in membrane potential using the bis-oxonol dye DiBAC(4)3 (Molecular Probes) in a 96-well cell-based kinetic assay system, Fluorescent Imaging Plate Reader (FLIPR) (K.S. Schroeder et al., J. Biomed. Screen., v. I pp. 75-81 (1996)). DiBAC(4)3 is an anionic potentiometric probe which partitions between cells and extracellular solution in a membrane potential-dependent manner. With increasing membrane potential (for example, K+depolarization), the probe further partitions into the cell; this is measured as an increase in fluorescence due to dye interaction with intracellular lipids and proteins. Conyersely, decreasing membrane potential (hyperpolarization by potassium channel openers) evokes a decrease in fluorescence. […] HEPES, 20; NaCl, 120; KCl, 2; CaC'2, 2; MgCl2, 1; glucose, 5; pH 7.4 at 25 ° C.) containing 5 µM DiBAC(4)3 and incubated with […] of the buffer in a cell incubator for 30 minutes at 37 OC to ensure dye distribution across the membrane. After recording the baseline fluorescence for 5 minutes, the reference or test compounds, prepared at 10 times the concentration in the assay buffer, were added directly to the wells. Changes in fluorescence were monitored for an additional 25 minutes. […] Pharmacol., v. 43 pp. 474-481 (1993)). Routinely, five concentrations of […] or test compounds (log or half-log dilutions) were evaluated and the maximal steady-state hyperpolarization values (expressed as % relative to […]) plotted as a function of concentration. […] The maximal response of each compound (expressed as % relative to […]) is reported.

potassium channels [2] = biological target: potassium channels (Sus scrofa, UniProt F1SR11); test: Functional potassium channel opening activity in isolated Landrace pig bladder strips (field-stimulated twitch); details: for Landrace Pig Bladder Index: ED50 for P1075 divided by ED50 for the test agonist, averaged over tissues; for Landrace Pig Bladder pD2: negative logarithm of ED50; for Emax: pig
Procedure, shortened: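 Landrace pig bladder strips with the mucosa removed were field-stimulated (0.05 Hz, 0.5 ms, 20 V) in Krebs Ringer bicarbonate containing propranolol, and primed with 80 mM KCl. Cumulative concentration-response curves gave maximal efficacy relative to a reference potassium channel opener, pD2, and a potency index (reference ED50/test ED50) averaged across tissues.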

[3] = maximal efficacy relative to P1075, field stimulation 0.05Hz, 0.5 milli-seconds at 20 volts

potassium channels (Cavia porcellus, UniProt A0A286XYR9), sequence (A0A286XYR9 1-1546): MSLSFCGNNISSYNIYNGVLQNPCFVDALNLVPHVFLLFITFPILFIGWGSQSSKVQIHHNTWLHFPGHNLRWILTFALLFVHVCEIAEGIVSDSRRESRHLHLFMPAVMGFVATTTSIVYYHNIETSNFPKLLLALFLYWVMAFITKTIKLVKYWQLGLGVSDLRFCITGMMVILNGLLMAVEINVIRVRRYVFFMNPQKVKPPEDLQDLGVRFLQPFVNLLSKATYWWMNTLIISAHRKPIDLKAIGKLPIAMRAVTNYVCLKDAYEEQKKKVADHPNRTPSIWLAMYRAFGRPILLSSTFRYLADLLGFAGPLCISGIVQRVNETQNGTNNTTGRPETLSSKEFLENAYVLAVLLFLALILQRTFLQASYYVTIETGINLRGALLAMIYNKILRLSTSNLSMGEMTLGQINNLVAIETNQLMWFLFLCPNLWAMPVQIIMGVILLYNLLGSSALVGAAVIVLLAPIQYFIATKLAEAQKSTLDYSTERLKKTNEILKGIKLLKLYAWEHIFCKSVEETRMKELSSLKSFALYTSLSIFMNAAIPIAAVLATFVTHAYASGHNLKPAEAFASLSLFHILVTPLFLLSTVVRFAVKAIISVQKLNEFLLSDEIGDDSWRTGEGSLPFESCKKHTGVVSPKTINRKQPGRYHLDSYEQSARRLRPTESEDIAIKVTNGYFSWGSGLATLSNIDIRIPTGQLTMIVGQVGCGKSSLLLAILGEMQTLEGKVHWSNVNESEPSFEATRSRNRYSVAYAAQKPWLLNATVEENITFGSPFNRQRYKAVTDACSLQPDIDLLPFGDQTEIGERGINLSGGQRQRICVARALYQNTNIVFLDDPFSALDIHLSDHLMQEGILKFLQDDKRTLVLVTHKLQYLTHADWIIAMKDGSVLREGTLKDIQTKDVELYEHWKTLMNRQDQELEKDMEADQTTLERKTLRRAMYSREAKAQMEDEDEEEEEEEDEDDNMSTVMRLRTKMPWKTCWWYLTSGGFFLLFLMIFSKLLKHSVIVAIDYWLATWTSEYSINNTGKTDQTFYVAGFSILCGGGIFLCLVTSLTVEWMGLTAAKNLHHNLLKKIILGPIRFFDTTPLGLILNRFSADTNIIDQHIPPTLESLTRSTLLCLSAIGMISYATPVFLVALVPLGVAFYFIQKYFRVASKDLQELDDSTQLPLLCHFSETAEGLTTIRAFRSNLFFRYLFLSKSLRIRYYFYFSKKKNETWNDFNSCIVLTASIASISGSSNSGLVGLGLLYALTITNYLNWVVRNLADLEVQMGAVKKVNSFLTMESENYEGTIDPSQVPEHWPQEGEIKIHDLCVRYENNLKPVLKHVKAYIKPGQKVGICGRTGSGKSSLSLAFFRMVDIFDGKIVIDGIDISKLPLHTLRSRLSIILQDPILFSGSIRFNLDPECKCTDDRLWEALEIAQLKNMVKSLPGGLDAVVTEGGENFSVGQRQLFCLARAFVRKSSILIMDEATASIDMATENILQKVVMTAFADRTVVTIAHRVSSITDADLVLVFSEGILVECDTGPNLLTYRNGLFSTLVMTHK
potassium channels (Cavia porcellus, UniProt A0A286XYR9), sequence (Q9JHJ9 whole entry partner): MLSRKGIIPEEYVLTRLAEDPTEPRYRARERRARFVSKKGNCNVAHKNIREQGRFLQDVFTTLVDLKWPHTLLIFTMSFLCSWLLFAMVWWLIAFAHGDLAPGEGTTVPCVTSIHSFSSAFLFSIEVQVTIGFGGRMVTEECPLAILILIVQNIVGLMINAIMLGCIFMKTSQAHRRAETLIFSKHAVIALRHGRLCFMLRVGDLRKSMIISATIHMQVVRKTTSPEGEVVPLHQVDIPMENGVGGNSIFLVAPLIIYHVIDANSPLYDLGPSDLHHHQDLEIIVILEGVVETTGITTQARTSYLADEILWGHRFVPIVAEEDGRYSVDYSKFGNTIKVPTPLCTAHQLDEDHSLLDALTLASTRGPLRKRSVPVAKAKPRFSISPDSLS

Compound | MHP in GPB Cells Maximal Response (% P1075) (potassium channels [1]) | Landrace Pig Bladder Index (potassium channels [2]) | Landrace Pig Bladder Efficacy (% P1075) (potassium channels [2]; [3]) | Landrace Pig Bladder pD2 (potassium channels [2]) | Emax (potassium channels [2]; [3]) [%] | melting point [°C] | EC50 (potassium channels [1]) [µM]
8-(3-bromo-4-fluorophenyl)-6-trifluoromethyl-5,8-dihydrothiopyrano[3 .2-b]pyridine, 1,1-dioxide [Example 159] | 100 % P1075 |  |  |  |  |  | 
O=S1(=O)CCCC2=C1C(c1ccc(F)c(Br)c1)C1=C(CCCS1(=O)=O)N2 [Example 54, 10-(3-bromo-4-fluorophenyl)-3,4,6,7,8,10-hexahydro-2H,5H-dithiopyrano [3,2-b:2′,3′-e]pyridine, 1,1,9,9-tetraoxide] | 107 % P1075 and 133 % P1075 | 0.015 | 89 | 4.9 |  |  | 
CC(=O)C1=C(C)NC2=C(C1c1ccc(F)c(Br)c1)S(=O)(=O)CCC2 (centres unmarked) [Example 66, 1-[8-(3-bromo-4-fluorophenyl)-3,4,5,8-tetrahydro-6-methyl-1.-dioxido-2H-thiopyrano[3,2-b]pyridin-7-yl)lethan-1-one] |  | 0.12 |  | 6.3 | 94 | > 260 | 
O=C1CCC2=C1C(c1ccc([N+](=O)[O-])s1)C1=C(CCS1(=O)=O)N2 (centres unmarked) [Example 70] |  | 0.15 |  | 6.3 | 100 | 251 to 254 | 
O=[N+]([O-])c1cccc(C2C3=C(CCS3(=O)=O)NC3=C2S(=O)(=O)CC3)c1 [Example 73] |  | 0.0022 |  | 4.4 | 98 | 248 to 252 | 
O=S1(=O)CCC2=C1C(c1ccc(F)c(Cl)c1)C1=C(CCS1(=O)=O)N2 [Example 74] |  | 0.081 |  | 6.1 | 100 | > 260 | 
O=S1(=O)CCC2=C1C(c1ccc(Cl)c(Cl)c1)C1=C(CCS1(=O)=O)N2 [Example 77] |  | 0.046 |  | 5.5 | 93 | > 260 | 
O=C1CCCC2=C1C(c1ccc(F)c(Cl)c1)C1=C(CCS1(=O)=O)N2 (centres unmarked) [Example 81, 9-(3-chloro-4-fluorophenyl)-2,3,5,6,7,9-hexahydrothieno [3.2-b]quinolin-8(4H)-one, 1 1-dioxide] |  | 0.39 |  | 6.4 | 91 | > 260 | 
CC1=C(C(=O)O)C(c2ccc(F)c(Br)c2)C2=C(CCS2(=O)=O)N1 (centres unmarked) [Example 106, 7-(3-bromo-4-fluorophenyl)-5-methyl-2,3,4,7-tetrahydrothieno[3.2-b]pyridine-6-carboxylic acid, 1,1-dioxide] |  | 0.014 |  | 5.1 | 98 | 220 to 223 | 
CC1=C(C(=O)O)C(c2ccc(F)c(Br)c2)C2=C(CCCS2(=O)=O)N1 (centres unmarked) [Example 107] |  | 0.015 |  | 5.2 | 100 | 208 to 210 | 
CC1(C)CCC2=C(C1=O)C(c1ccc(F)c(Br)c1)C1=C(CCS1(=O)=O)N2 (centres unmarked) [Example 116, 9-(3-bromo-4-fluorophenyl)-7,7-dimethyl-2,3,5,6,7,9-hexahydrothieno[3.2-b]quinolin-8(4H)-one, 1,1-dioxide] |  | 0.16 |  | 6.3 | 100 | > 270 | 
O=S1(=O)CCC2=C1C(c1ccc(Cl)c(C(F)(F)F)c1)C1=C(CCS1(=O)=O)N2 [Example 122] |  | 0.012 |  | 4.8 | 94 | > 260 | 
O=S1(=O)CCC2=C1C(c1ccc3nonc3c1)C1=C(CCS1(=O)=O)N2 [Example 123] |  | 0.0047 |  | 4.5 | 98 | > 260 | 
O=S1(=O)CCC2=C1C(c1ccc(Br)c(Br)c1)C1=C(CCS1(=O)=O)N2 [Example 124] |  | 0.025 |  | 5.3 | 99 | > 260 | 
CC1(C)CCC2=C(C1=O)C(c1cccc([N+](=O)[O-])c1)C1=C(CCS1(=O)=O)N2 (centres unmarked) [Example 189, 7,7-dimethyl-9-(3-nitrophenyl)-2,3,5,6,7,,9-hexahydrothieno[3.2-b]guinolin-8(4H)-one 1,1-dioxide] | 51 % P1075 |  |  |  |  |  | 10
CC1(C)CCC2=C(C1=O)C(c1cc(Cl)cc(Br)c1O)C1=C(CCS1(=O)=O)N2 (centres unmarked) [Example 199, 9-(3-bromo-5-chloro-2-hydroxyphenyl)-7,7-dimethyl-2,3.5.6,7,9-hexahydrothieno[3.2-b]quinolin-8(4H)-one 1,1-dioxide] | 12 % P1075 |  |  |  |  |  | > 10
CC1(C)CCC2=C(C1=O)C(c1cc(Br)c(O)c(Br)c1)C1=C(CCS1(=O)=O)N2 (centres unmarked) [Example 207] | 92 % P1075 |  |  |  |  |  | 1.2
